Laboratory results reported in patent US20060069132A1, “Azolecarboxamide herbicides” (priority 2004, published 2006).

How the values were obtained:
wheat = assay: Test B postemergence herbicide test; assay type: in vivo, Triticum aestivum; design: key to Wheat plant response rating: 0 = no effect, 100 = complete control; conditions: scale 0 (no effect) to 100 (complete control)
Summary of the method: (§1)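 Scale 0–100: zero equals no visible effect, 100 complete control, judged by eye relative to controls. Timing: 13 to 15 days in greenhouse post-treatment. Growth stage at spraying: two leaves (paddy) or one to four leaves, 2–18 cm (postemergence).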

velvetleaf [1] = assay: Test B pre-/postemergence herbicide test; assay type: in vivo, Abutilon theophrasti
Summary of the method: (§2)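 Greenhouse pot assay with simultaneous preemergence (treated seed) and postemergence (2–18 cm seedlings) applications of surfactant-containing, non-phytotoxic solvent formulations. Response scored visually 13–15 days later on a 0–100 scale, 100 meaning complete control.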

redroot pigweed = assay: Test A pre-/postemergence herbicide test; assay type: in vivo, Amaranthus retroflexus; conditions: for Plant response rating, Pigweed: Postemergence; for Pigweed plant response rating: Preemergence
Summary of the method: (§3)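 Seeds sown in sandy loam received a preemergence directed soil spray of compound in non-phytotoxic solvent with surfactant; postemergence plants (2–10 cm, one- to two-leaf stage) were sprayed to runoff at the same time. After ~10 days in greenhouse, injury was rated visually versus untreated controls (0 = no effect, 100 = complete control).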

corn = assay: Test B pre-/postemergence herbicide test; assay type: in vivo, Zea mays
Summary of the method: as §2

giant foxtail [2] = assay: Test B pre-/postemergence herbicide test; assay type: in vivo, Setaria faberi
Summary of the method: as §2

barnyardgrass [3] = assay: Test B pre-/postemergence herbicide test; assay type: in vivo, Echinochloa crus-galli
Summary of the method: as §2

blackgrass = assay: Test B postemergence herbicide test; assay type: in vivo, Alopecurus myosuroides; conditions: scale 0 (no effect) to 100 (complete control)
Summary of the method: (§4)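 Greenhouse test; postemergence application to plants at 1–4 leaves (2–18 cm); paddy species at 2 leaves; evaluated visually vs controls at 13–15 days; scale 0–100 (100 = complete control).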

velvetleaf [4] = assay: Test A pre-/postemergence herbicide test; assay type: in vivo, Abutilon theophrasti; conditions: for Velvetleaf plant response rating: Preemergence, visual rating, 0 to 100 scale (0 no effect, 100 complete control)
Summary of the method: as §3

rice [5] = assay: Test B flooded paddy test; assay type: in vivo, Oryza sativa; conditions: 1000 g ai/ha, visual rating, scale 0 to 100 (0 no effect, 100 complete control), 13 to 15 days
Summary of the method: as §4

large crabgrass [6] = assay: Test B pre-/postemergence herbicide test; assay type: in vivo, Digitaria sanguinalis
Summary of the method: as §2

barnyardgrass [7] = assay: Test A pre-/postemergence herbicide test; assay type: in vivo, Echinochloa crus-galli; conditions: for Plant response rating, Barnyardgrass: Postemergence; for Barnyardgrass plant response rating: Preemergence
Summary of the method: as §3

giant foxtail [8] = assay: Test A pre-/postemergence herbicide test; assay type: in vivo, Setaria faberi; conditions: for Plant response rating, Foxtail, Giant: Postemergence; for Foxtail, Giant plant response rating: Preemergence
Summary of the method: as §3

large crabgrass [9] = assay: Test A pre-/postemergence herbicide test; assay type: in vivo, Digitaria sanguinalis; conditions: for Plant response rating, Crabgrass, Large: Postemergence; for Crabgrass, Large plant response rating: Preemergence
Summary of the method: as §3

morningglory [10] = assay: Test B pre-/postemergence herbicide test; assay type: in vivo, Ipomoea coccinea
Summary of the method: as §2

pigweed = assay: Test B pre-/postemergence herbicide test; assay type: in vivo, Amaranthus retroflexus
Summary of the method: as §2

lambsquarters = assay: Test B pre-/postemergence herbicide test; assay type: in vivo, Chenopodium album
Summary of the method: as §2

cocklebur = assay: Test B pre-/postemergence herbicide test; assay type: in vivo, Xanthium strumarium
Summary of the method: as §2

barnyardgrass [11] = assay: Test B flooded paddy test; assay type: in vivo, Echinochloa crus-galli; conditions: 1000 g ai/ha, visual rating, scale 0 to 100 (0 no effect, 100 complete control), 13 to 15 days
Summary of the method: as §4

wild oat = assay: Test B postemergence herbicide test; assay type: in vivo, Avena fatua; conditions: scale 0 (no effect) to 100 (complete control)
Summary of the method: as §1

morningglory [12] = assay: Test A pre-/postemergence herbicide test; assay type: in vivo, Ipomoea spp.; conditions: for Plant response rating, Morningglory: Postemergence; for Morningglory plant response rating: Preemergence
Summary of the method: as §3

Surinam grass = assay: Test B pre-/postemergence herbicide test; assay type: in vivo, Urochloa decumbens
Summary of the method: as §2

[13] = test system: small flower umbrella sedge; assay: Test B flooded paddy test; assay type: in vivo, Cyperus difformis; conditions: 1000 g ai/ha, visual rating, scale 0 to 100 (0 no effect, 100 complete control), 13 to 15 days
Summary of the method: as §4

ducksalad = assay: Test B flooded paddy test; assay type: in vivo, Heteranthera limosa; conditions: 1000 g ai/ha, visual rating, scale 0 to 100 (0 no effect, 100 complete control), 13 to 15 days
Summary of the method: as §4

rice [14] = assay: Test B pre-/postemergence herbicide test; assay type: in vivo, Oryza sativa; conditions: preemergence, 125 g ai/ha; 0 to 100 scale, 0 is no effect, 100 is complete control
Summary of the method: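 Species tested were Echinochloa crus-galli, Ipomoea coccinea, Xanthium strumarium and Oryza sativa, treated both before emergence and at the 1- to 4-leaf stage; rice and barnyardgrass were also tested under flooding at 2 leaves. Greenhouse incubation lasted 13–15 days before visual 0–100 scoring.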

[15] = Postemergence, 500 g ai/ha, visual rating after 13 to 15 days
[16] = postemergence, 125 g ai/ha, visual rating
[17] = Postemergence, 500 g ai/ha, visual rating after 13 to 15 days, scale 0 (no effect) to 100 (complete control)
[18] = postemergence, 125 g ai/ha, visual rating, scale 0 (no effect) to 100 (complete control)
[19] = preemergence, 125 g ai/ha, 0 to 100 scale, 0 is no effect, 100 is complete control
[20] = 500 g ai/ha, 0 to 100 scale, 0 no effect, 100 complete control
[21] = 2000 g ai/ha, 0 to 100 scale, 0 no effect, 100 complete control
[22] = 500 g ai/ha, visual rating, 0 to 100 scale (0 no effect, 100 complete control)
[23] = Preemergence, 500 g ai/ha, scale 0 to 100

CCn1nc(C(C)(C)C)cc1C(=O)Nc1cc(C(=O)OC(C)(C)C)ccc1F [Compound 71]
20: Plant response rating, Pigweed (pigweed; [17]) | Plant response rating, Lambsquarters (lambsquarters; [17])
10: Plant response rating, Corn (corn; [17]) | Plant response rating, Foxtail, Giant (giant foxtail [2]; [17]) | Plant response rating, Barnyardgrass (barnyardgrass [3]; [17]) | Plant response rating, Crabgrass, Large (large crabgrass [6]; [17]) | Plant response rating, Surinam Grass (Surinam grass; [17])
0: Plant response rating, Wheat (wheat; [15]) | Wheat plant response rating (wheat; [16]) | Plant response rating, Velvetleaf (velvetleaf [1]; [17]) | Velvetleaf plant response rating (velvetleaf [1]; [18]) | Plant response rating, Velvetleaf (velvetleaf [1]; [19]) | Plant response rating, Pigweed (redroot pigweed; [20]) | Plant response rating, Pigweed (redroot pigweed; [21]) | Pigweed plant response rating (redroot pigweed; [22]) | Pigweed plant response rating (redroot pigweed; [21]) | Corn plant response rating (corn; [23]) | Corn plant response rating (corn; [18]) | Plant response rating, Corn (corn; [19]) | Foxtail, Giant plant response rating (giant foxtail [2]; [23]) | Foxtail, Giant plant response rating (giant foxtail [2]; [18]) | Plant response rating, Foxtail, Giant (giant foxtail [2]; [19]) | Barnyardgrass plant response rating (barnyardgrass [3]; [23]) | Barnyardgrass plant response rating (barnyardgrass [3]; [18]) | Plant response rating, Barnyardgrass (barnyardgrass [3]; [19]) | Plant response rating, Blackgrass (blackgrass; [15]) | Blackgrass plant response rating (blackgrass; [16]) | Plant response rating, Velvetleaf (velvetleaf [4]; Postemergence, 2000 g ai/ha, 0 to 100 scale, 0 no effect, 100 complete control) | Velvetleaf plant response rating (velvetleaf [4]; 500 g ai/ha) | Velvetleaf plant response rating (velvetleaf [4]; 2000 g ai/ha) | Rice plant response rating (rice [5]) | Crabgrass, Large plant response rating (large crabgrass [6]; [23]) | Crabgrass, Large plant response rating (large crabgrass [6]; [18]) | Plant response rating, Crabgrass, Large (large crabgrass [6]; [19]) | Plant response rating, Barnyardgrass (barnyardgrass [7]; [20]) | Plant response rating, Barnyardgrass (barnyardgrass [7]; [21]) | Barnyardgrass plant response rating (barnyardgrass [7]; [22]) | Barnyardgrass plant response rating (barnyardgrass [7]; [21]) | Plant response rating, Foxtail, Giant (giant foxtail [8]; [20]) | Plant response rating, Foxtail, Giant (giant foxtail [8]; [21]) | Foxtail, Giant plant response rating (giant foxtail [8]; [22]) | Foxtail, Giant plant response rating (giant foxtail [8]; [21]) | Plant response rating, Crabgrass, Large (large crabgrass [9]; [20]) | Plant response rating, Crabgrass, Large (large crabgrass [9]; [21]) | Crabgrass, Large plant response rating (large crabgrass [9]; [22]) | Crabgrass, Large plant response rating (large crabgrass [9]; [21]) | Plant response rating, Morningglory (morningglory [10]; [17]) | Morningglory plant response rating (morningglory [10]; [18]) | Plant response rating, Morningglory (morningglory [10]; [19]) | Pigweed plant response rating (pigweed; [18]) | Plant response rating, Pigweed (pigweed; [19]) | Lambsquarters plant response rating (lambsquarters; [18]) | Plant response rating, Lambsquarters (lambsquarters; [19]) | Plant response rating, Cocklebur (cocklebur; [17]) | Cocklebur plant response rating (cocklebur; [23]) | Cocklebur plant response rating (cocklebur; [18]) | Plant response rating, Cocklebur (cocklebur; [19]) | Barnyardgrass plant response rating (barnyardgrass [11]) | Plant response rating, Oat, Wild (wild oat; [15]) | Oat, Wild plant response rating (wild oat; [16]) | Plant response rating, Morningglory (morningglory [12]; [20]) | Plant response rating, Morningglory (morningglory [12]; [21]) | Morningglory plant response rating (morningglory [12]; [22]) | Morningglory plant response rating (morningglory [12]; [21]) | Surinam Grass plant response rating (Surinam grass; [18]) | Plant response rating, Surinam Grass (Surinam grass; [19]) | Sedge, Umbrella plant response rating [13] | Ducksalad plant response rating (ducksalad) | Plant response rating, Rice (rice [14])
